Results on five compounds are retold here after ChEMBL document CHEMBL1159088, “Design, synthesis and biological evaluation of simplified analogues of the RNA polymerase inhibitor etnangien” (Bioorg Med Chem Lett, 2010).

Converted amounts (≈) assume the structure as drawn. A value given as a limit tells only on which side of the number the result lay.

One series has as its system Saccharomyces cerevisiae. The series is described as follows: Antibacterial activity against Saccharomyces cerevisiae. The series is classed as functional.
The subject of another series is Mycolicibacterium phlei. Description: Antibacterial activity against Mycobacterium phlei. Format: functional.
A further series concerns Staphylococcus aureus. Description: Antibacterial activity against Staphylococcus aureus. Format: functional.
The nature of series [1]: Chemical stability at pH >3. The series is classed as physicochemical.
The test system of a further series is Micrococcus luteus. Description: Antibacterial activity against Micrococcus luteus. Format: functional.
Series [2] has as its system Corynebacterium glutamicum. Description: Antibacterial activity against Corynebacterium glutamicum. Format: functional.
The subject of another series is Escherichia coli. Description: Antibacterial activity against Escherichia coli. The series is classed as functional.
Series [3] can be described thus: Chemical stability at pH >10. The series is classed as physicochemical.
A short description of series [4]: Chemical stability at pH 7. The series is classed as physicochemical. To be noted: buffer.
The nature of series [5]: Chemical stability after 48 hrs. To be noted: read-out: Stability. The series is classed as physicochemical.

Regarding `CO[C@@H]1C/C=C\C=C\C[C@H](C)[C@@H](O)[C@H](C)[C@@H](O)[C@H](C)[C@H](O)CC(=O)O[C@H]([C@H](C)[C@H](O)/C=C(C)/C=C/C=C/C=C/C=C/C=C/C[C@H](O)/C(C)=C/CCC(=O)O)C[C@H](O)CCC1` [ETNANGIEN], the minimum inhibitory concentration (MIC) in the series on Saccharomyces cerevisiae is greater than 80 µg/mL; in the series on Mycolicibacterium phlei it was 0.12 µg/mL (≈ 0.143 µM); in the series on Staphylococcus aureus it was 1 µg/mL (≈ 1.19 µM); with Micrococcus luteus, 0.06 µg/mL (≈ 0.0713 µM); in series [2] it was 0.03 µg/mL (≈ 0.0357 µM); with Escherichia coli it was greater than 80 µg/mL. In addition, the Stability result in series [1] was “Unstable”; in series [3] it was “Unstable”; in [4], “Stable”.
In the case of `COc1ccc(COC[C@@H](C)[C@@H](O)C[C@H]2CCC[C@H](OC)C/C=C\C=C\C[C@H](C)[C@@H](O)[C@H](C)[C@@H](O)[C@H](C)[C@H](O)CC(=O)O2)cc1`, the minimum inhibitory concentration (MIC) against Saccharomyces cerevisiae is greater than 20 µg/mL; in the series on Mycolicibacterium phlei, greater than 20 µg/mL; against Staphylococcus aureus, greater than 20 µg/mL; against Micrococcus luteus, greater than 20 µg/mL; in [2], 20 µg/mL (≈ 31.5 µM); against Escherichia coli, greater than 20 µg/mL.
Consider `COC(=O)CC/C=C(\C)[C@@H](O)C/C=C/C=C/C=C/C=C/C=C/C(C)=C/[C@@H](O)[C@@H](C)[C@@H]1C[C@H](O)CCC[C@H](OC)C/C=C\C=C\C[C@H](C)[C@@H](O)[C@H](C)[C@@H](O)[C@H](C)[C@H](O)CC(=O)O1` [ETNANGIEN METHYL ESTER], for which the MIC was greater than 40 µg/mL in the series with Saccharomyces cerevisiae; 2.5 µg/mL (≈ 2.92 µM) in the series with Staphylococcus aureus; 0.39 µg/mL (≈ 0.456 µM) in the series on Micrococcus luteus; 0.24 µg/mL (≈ 0.281 µM) in series [2]; greater than 20 µg/mL against Escherichia coli. In addition, the remaining at 48 h in series [5] is less than 5%. Further, the values for the Stability result in series [1], in [3] and in [4] were “Unstable”, “Unstable” and “Stable”, respectively.
As for `COc1ccc(COC[C@@H](C)[C@@H]2C[C@H](O)CCC[C@H](OC)C/C=C\C=C\C[C@H](C)[C@@H](O)[C@H](C)[C@@H](O)[C@H](C)[C@H](O)CC(=O)O2)cc1`, the minimum inhibitory concentration (MIC) was greater than 20 µg/mL in the series with Saccharomyces cerevisiae; 20 µg/mL (≈ 31.5 µM) in the series with Mycolicibacterium phlei; greater than 20 µg/mL against Staphylococcus aureus; greater than 20 µg/mL in the series on Micrococcus luteus; 10 µg/mL (≈ 15.8 µM) in series [2]; greater than 20 µg/mL with Escherichia coli.
On to `CO[C@@H]1C/C=C\C=C\C[C@H](C)[C@H]2OC(C)(C)O[C@H]([C@H]2C)[C@H](C)[C@H](O)CC(=O)O[C@H]([C@H](C)[C@H](O)/C=C(C)/C=C/CO)C[C@H](O)CCC1`, for which the MIC against Saccharomyces cerevisiae was greater than 20 µg/mL; against Mycolicibacterium phlei, 20 µg/mL (≈ 30.7 µM); in the series with Staphylococcus aureus, greater than 20 µg/mL; against Micrococcus luteus it was greater than 20 µg/mL; in series [2] it was 10 µg/mL (≈ 15.4 µM); against Escherichia coli, greater than 20 µg/mL.

In general, MIC refers to the lowest concentration that inhibits growth of the organism.
